Results as given in ChEMBL document CHEMBL1201862, “PubChem BioAssay data set” (2004).
Activity calls are given as the source filed them.

Assays:
[1] = target: Large T antigen (Simian virus 40, UniProt P03070); format: functional, Betapolyomavirus macacae;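 further: Confirmatory-stage PubChem screen for compounds that inhibit SV40 T antigen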
[2] = target: DNA dC->dU-editing enzyme APOBEC-3G (Homo sapiens, UniProt Q9HC16); test: Dose Response confirmation of small molecule APOBEC3G DNA Deaminase Inhibitors via a fluorescence-based single-stranded DNA deaminase assay. [Related pubchem assays (depositor defined):AID493012, AID493028]; format: functional
Sequence of DNA dC->dU-editing enzyme APOBEC-3G (Q9HC16 whole entry): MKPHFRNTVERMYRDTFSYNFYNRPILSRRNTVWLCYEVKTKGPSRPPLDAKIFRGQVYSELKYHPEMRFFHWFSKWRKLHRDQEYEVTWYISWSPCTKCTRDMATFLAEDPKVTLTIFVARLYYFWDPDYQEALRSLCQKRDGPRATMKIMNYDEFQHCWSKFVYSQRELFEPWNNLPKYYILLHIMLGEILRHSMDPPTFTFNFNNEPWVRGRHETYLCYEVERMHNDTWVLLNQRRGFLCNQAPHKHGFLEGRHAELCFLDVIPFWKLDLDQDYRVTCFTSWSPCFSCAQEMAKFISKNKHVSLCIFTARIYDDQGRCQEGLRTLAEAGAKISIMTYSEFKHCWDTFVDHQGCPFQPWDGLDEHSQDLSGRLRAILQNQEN

[3] = target: T1, Heat shock factor protein 1 (Mus musculus, UniProt P38532); test: HSF1 potentiators in luciferase reporter cells, confirmation, cell-based, NIH3T3, luminescence, dose retest (AID 435004); format: functional;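 further: stress induced by proteasome inhibitor MG132 added 30 min after compound; luciferase reporter driven by HSF1 response element in NIH3T3 cells; actives raise luminescence as potentiators of the MG132 stress response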
T1 sequence (P38532 whole entry): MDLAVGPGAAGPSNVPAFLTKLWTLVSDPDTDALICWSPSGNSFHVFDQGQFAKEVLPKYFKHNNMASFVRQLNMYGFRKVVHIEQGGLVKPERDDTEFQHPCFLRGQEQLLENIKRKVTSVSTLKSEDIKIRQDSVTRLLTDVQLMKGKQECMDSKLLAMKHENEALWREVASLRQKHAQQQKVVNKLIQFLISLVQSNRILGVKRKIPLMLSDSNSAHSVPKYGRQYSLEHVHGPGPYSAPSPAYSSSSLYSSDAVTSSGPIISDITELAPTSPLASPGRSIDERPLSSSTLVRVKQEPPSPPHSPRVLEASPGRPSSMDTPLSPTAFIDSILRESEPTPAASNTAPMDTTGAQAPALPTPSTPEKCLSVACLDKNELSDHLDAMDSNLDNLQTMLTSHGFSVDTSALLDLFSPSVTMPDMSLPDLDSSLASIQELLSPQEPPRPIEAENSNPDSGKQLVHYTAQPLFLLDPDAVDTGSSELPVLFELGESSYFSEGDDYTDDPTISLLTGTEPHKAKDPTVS

[4] = target: T2, Protein Tat (Human immunodeficiency virus type 1 group M subtype B (isolate HXB2)(HIV-1), UniProt P04608); format: functional;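 further: tat binding to TAR RNA read out by fluorescence polarization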
T2 sequence (P04608 whole entry): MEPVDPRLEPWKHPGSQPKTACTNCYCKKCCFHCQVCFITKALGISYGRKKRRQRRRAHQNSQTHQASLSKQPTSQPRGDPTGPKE

[5] = THP-1 cell cytotoxicity, dose response, cytotoxicity control for Vif-APOBEC3G degradation inhibitor project, THP-1 cells (AID 1117359); format: functional; settings: Human immunodeficiency virus 1, THP-1
[6] = target: T3, Mannose-6-phosphate isomerase (Homo sapiens, UniProt P34949); test: human PMI inhibitors, high substrate, primary screen, biochemical, fluorescence intensity, high mannose 6-phosphate (AID 1220)
T3 sequence (P34949 whole entry): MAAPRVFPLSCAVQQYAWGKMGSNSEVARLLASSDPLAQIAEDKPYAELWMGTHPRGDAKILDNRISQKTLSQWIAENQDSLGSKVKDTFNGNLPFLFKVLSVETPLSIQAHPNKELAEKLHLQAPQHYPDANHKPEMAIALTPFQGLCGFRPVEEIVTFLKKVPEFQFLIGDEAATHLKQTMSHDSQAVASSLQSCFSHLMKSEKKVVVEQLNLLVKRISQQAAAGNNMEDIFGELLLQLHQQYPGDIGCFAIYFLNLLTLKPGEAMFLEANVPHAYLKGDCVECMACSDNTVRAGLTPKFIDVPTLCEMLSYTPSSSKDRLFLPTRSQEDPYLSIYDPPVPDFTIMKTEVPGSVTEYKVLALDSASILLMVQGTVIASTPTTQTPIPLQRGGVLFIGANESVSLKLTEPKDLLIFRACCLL

[7] = target: Luciferin 4-monooxygenase (Photinus pyralis, UniProt P08659); test: Counter Screen for Luciferase-based Assay Positives. [Related pubchem assays: 620, 618, 411 ]
Sequence of Luciferin 4-monooxygenase (P08659 whole entry): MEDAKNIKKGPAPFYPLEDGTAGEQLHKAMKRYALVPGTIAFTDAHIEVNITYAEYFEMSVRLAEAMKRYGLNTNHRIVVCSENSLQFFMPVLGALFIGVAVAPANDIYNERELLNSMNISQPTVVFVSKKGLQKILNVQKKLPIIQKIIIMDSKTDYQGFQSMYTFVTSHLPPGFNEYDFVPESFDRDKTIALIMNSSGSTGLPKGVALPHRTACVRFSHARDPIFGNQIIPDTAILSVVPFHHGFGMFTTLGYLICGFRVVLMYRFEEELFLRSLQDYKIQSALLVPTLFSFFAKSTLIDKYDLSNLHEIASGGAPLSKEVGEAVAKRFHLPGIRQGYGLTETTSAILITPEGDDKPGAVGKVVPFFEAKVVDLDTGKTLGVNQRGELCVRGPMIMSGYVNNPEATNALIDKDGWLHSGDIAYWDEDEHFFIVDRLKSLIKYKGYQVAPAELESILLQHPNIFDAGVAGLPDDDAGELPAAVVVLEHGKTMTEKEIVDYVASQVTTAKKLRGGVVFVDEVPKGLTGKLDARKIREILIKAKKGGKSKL

[8] = tested on: HT-1080; test: cytotoxicity in HT1080 fibrosarcoma cells, cell-based, fluorescence readout (AID 620); format: functional; settings: Homo sapiens
[9] = cells; format: functional
[10] = target: T4, Replicative DNA helicase DnaB (Mycobacterium tuberculosis, UniProt P9WMR3); test: DnaB intein splicing inhibitors, dose response, biochemical, cell-free fluorescence (AID 449749); format: functional
T4 sequence (P9WMR3 whole entry): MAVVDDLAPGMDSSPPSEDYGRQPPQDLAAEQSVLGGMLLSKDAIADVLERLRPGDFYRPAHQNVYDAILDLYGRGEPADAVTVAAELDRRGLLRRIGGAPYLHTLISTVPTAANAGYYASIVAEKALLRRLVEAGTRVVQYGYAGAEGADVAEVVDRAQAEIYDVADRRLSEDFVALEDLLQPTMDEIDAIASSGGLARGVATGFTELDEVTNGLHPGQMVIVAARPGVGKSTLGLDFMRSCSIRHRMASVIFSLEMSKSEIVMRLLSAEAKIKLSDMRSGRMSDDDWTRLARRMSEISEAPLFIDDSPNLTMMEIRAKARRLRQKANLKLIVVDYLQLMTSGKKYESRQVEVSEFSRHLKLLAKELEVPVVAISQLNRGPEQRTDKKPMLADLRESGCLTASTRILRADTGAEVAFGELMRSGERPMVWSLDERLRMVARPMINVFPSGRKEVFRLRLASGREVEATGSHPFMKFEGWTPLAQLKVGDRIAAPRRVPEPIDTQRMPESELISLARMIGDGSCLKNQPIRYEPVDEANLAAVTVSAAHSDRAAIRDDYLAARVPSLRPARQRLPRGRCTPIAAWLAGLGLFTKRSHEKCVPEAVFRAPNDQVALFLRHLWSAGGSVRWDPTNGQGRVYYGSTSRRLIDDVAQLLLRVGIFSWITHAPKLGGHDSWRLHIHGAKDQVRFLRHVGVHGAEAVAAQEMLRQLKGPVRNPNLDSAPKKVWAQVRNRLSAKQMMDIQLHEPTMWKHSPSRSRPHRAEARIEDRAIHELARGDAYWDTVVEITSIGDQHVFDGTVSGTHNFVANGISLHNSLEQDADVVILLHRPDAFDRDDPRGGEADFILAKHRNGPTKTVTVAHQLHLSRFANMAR

[11] = target: T5, Protein RecA (Mycobacterium tuberculosis, UniProt P9WHJ3); test: Fluorescence Cell-Free Homogeneous Dose Retest to Identify Inhibitors of RecA-Intein Splicing Activity. [Related pubchem assays (depositor defined):AID2097, AID2223, AID489010, AID492950]; format: functional
T5 sequence (P9WHJ3 whole entry): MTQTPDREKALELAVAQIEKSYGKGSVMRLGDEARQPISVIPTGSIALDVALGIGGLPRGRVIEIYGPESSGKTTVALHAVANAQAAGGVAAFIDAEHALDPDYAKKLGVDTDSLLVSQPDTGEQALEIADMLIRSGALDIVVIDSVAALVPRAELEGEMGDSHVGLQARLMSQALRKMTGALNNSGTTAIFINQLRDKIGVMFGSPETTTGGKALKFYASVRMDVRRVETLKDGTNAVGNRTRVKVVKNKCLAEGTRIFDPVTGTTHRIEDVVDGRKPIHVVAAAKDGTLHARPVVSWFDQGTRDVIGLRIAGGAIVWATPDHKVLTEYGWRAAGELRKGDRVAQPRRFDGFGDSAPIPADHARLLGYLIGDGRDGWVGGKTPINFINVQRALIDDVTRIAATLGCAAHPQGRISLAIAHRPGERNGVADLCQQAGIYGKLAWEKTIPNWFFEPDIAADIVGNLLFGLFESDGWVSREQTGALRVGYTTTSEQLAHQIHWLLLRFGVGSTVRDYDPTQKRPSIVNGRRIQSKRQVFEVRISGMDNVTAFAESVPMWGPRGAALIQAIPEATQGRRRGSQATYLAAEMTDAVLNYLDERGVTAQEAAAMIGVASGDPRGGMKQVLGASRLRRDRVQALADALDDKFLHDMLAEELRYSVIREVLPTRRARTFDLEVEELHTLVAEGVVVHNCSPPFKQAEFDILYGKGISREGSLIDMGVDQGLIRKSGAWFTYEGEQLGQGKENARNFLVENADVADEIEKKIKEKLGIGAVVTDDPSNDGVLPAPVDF

[12] = target: T6, Sentrin-specific protease 8 (Homo sapiens, UniProt Q96LD8); format: functional
T6 sequence (Q96LD8 whole entry): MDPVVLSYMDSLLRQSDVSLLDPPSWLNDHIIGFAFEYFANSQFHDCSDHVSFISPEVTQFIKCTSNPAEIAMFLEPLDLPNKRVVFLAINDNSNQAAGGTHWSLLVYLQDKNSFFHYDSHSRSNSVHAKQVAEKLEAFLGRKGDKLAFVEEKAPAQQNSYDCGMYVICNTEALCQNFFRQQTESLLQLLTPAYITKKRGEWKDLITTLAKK

[13] = target: T6, Sentrin-specific protease 8; format: functional; remark: listed apart in the source
[14] = THP-1 cell cytotoxicity, dose response, cytotoxicity control for non-replicating M. tuberculosis project (AID 489025); format: functional
[15] = target: T7, Short transient receptor potential channel 4 (Mus musculus, UniProt Q9QUQ5); test: mouse TRPC4 channel inhibitors, dose response, cell-based, HEK293 TRPC4/mu-opioid, Fluo-4 calcium (AID 434942); format: functional;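 further: potency of inhibitors blocking the TRPC4 calcium response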
T7 sequence (Q9QUQ5 whole entry): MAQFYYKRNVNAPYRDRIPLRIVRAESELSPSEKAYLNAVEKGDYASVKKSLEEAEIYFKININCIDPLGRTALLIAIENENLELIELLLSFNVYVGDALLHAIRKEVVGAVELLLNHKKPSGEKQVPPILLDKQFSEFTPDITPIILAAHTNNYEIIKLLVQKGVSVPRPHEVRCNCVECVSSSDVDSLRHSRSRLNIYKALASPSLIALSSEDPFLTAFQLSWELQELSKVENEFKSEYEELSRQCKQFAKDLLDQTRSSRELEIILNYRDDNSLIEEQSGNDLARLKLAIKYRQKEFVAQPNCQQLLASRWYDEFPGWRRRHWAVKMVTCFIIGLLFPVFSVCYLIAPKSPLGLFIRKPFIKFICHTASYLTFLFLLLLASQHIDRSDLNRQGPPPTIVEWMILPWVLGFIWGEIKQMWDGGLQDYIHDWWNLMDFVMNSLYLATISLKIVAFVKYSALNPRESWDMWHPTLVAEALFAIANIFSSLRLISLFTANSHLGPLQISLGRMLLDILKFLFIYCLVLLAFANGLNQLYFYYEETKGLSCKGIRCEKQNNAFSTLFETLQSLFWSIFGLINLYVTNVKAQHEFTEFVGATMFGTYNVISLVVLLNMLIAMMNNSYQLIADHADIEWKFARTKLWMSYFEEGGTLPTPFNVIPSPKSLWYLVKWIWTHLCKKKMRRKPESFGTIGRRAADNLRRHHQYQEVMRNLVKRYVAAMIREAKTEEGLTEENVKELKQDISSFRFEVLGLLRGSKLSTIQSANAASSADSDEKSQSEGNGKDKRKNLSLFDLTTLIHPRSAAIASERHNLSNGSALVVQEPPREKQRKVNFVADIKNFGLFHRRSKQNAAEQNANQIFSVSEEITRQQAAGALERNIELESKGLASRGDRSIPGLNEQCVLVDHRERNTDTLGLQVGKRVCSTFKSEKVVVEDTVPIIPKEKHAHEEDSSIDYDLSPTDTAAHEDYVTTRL

[16] = target: T8, Protein skinhead-1 (Caenorhabditis elegans, UniProt P34707); format: functional
T8 sequence (P34707 whole entry): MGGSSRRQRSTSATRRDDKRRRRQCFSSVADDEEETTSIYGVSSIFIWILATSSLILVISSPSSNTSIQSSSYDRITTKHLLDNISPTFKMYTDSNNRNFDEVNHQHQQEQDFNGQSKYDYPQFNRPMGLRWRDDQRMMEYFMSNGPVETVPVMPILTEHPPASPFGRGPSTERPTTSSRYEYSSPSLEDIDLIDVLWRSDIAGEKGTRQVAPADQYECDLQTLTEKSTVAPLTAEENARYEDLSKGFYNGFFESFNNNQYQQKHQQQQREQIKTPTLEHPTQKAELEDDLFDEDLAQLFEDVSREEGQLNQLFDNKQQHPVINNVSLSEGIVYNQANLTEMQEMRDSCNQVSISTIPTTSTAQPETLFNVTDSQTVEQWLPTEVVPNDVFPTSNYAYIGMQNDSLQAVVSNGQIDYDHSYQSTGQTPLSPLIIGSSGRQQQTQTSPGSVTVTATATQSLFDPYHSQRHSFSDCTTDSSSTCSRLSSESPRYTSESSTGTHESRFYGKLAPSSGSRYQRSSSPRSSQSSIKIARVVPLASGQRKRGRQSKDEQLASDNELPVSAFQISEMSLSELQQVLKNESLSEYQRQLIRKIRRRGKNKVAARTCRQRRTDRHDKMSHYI

[17] = NIH-3T3 fibroblast cytotoxicity, dose response, cytotoxicity control, cell-based, fluorescence, Alamar Blue, secondary assay (AID 2327); format: functional;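 further: NIH-3T3 mouse fibroblasts cultured with fluconazole at 8 µg/mL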

Sequence of Large T antigen (P03070 whole entry): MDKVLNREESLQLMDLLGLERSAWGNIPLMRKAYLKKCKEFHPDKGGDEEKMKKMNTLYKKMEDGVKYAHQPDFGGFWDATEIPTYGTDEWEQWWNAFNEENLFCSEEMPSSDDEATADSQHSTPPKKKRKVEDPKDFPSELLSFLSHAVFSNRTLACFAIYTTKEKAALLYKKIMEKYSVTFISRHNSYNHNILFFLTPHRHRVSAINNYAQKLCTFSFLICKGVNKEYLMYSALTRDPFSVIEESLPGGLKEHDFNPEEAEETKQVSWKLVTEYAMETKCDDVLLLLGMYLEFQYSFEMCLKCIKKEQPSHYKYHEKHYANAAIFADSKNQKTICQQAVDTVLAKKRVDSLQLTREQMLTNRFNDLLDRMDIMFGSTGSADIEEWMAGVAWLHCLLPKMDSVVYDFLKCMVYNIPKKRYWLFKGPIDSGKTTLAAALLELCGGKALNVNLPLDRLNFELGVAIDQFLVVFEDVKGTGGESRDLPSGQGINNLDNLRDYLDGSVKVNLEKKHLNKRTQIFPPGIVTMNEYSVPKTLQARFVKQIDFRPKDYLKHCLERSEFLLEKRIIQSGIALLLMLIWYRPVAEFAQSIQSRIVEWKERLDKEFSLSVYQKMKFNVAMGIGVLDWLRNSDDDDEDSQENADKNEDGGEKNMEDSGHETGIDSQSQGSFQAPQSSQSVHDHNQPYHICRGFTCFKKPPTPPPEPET

## CSS(=O)(=O)c1cccc2cccnc12
[1]
  IC50: 65.2 µM (active)
[2]
  IC50: 9.66 µM (active)
[3]
  EC50: 19.1 µM (active)

## CNC(=O)[C@@H]1C[C@H]1[C@@H](NC(=O)OCc1ccccc1)c1ccccc1
[4]
  IC50: > 100 µM (active)
[5]
  CC50: > 40 µM (active)

## CCOC(=O)N1CCN(c2cc(NCCO)c([N+](=O)[O-])c3nonc23)CC1
[6]
  IC50: > 50 µM (not active)

## COc1ccc(C2=Nc3ccccc3OC2)cc1
[7]
  EC50: < 0.2 µM (active)
[8]
  EC50: > 50 µM (not active)
[9]
  IC50: 3.76 µM (active)

## O=C1CC(c2ccccc2)=NN1c1ccc([N+](=O)[O-])cc1
[10]
  AC50: 5.46 µM (active)
[11]
  EC50: 4.05 µM (active)
[12]
  IC50: 33.2 µM (active)
[13]
  IC50: 52.3 µM (active)

## COc1cccc(C(=O)NCCC2=CCCCC2)c1
[7]
  EC50: < 0.2 µM (active)
[8]
  EC50: > 50 µM (not active)

## COc1cc(CNC2CCCC2)cc(Cl)c1OCc1ccc(F)cc1
[14]
  CC50: 19.8 µM (active)
[15]
  EC50: 6.68 µM (active)
[16]
  IC50: 3.33 µM (active)

## C=CCN(CC=C)S(=O)(=O)c1ccc(C(=O)Nc2nnc(COC)o2)cc1
[17]
  EC50: 63.3 µM (active)
[5]
  CC50: 15.4 µM (active)

## O=C(CNc1ccc2ccccc2c1)N/N=C/c1ccc(C(=O)O)cc1
[6]
  IC50: > 50 µM (not active)
